In patent US10966978B2, “Dose and regimen for HDM2-p53 interaction inhibitors” (Novartis AG, priority 2016, dated 2021):
Where two headings read alike, the source gives them in different places.

System: patients with advanced TP53 wild-type (WT) leukemias

## COc1ncc(-c2nc3c(n2C(C)C)[C@H](c2ccc(Cl)cc2)N(c2cc(Cl)cn(C)c2=O)C3=O)c(OC)n1 [HDM201, (S)-5-(5-Chloro-1-methyl-2-oxo-1,2-dihydro-pyridin-3-yl)-6-(4-chloro-phenyl)-2-(2,4-dimethoxy-pyrimidin-5-yl)-1-isopropyl-5,6-dihydro-1H-pyrrolo[3,4-d]imidazol-4-one]
Regimen 1A N = 16, Grade 3/4
  AE: Iron Overload: 0 n (%)
  AE: Leukopenia: 2 (12.5) n (%)
  AE: Lip Oedema: 0 n (%)
  AE: Lipase Increased: 2 (12.5) n (%)
  AE: Macular Oedema: 0 n (%)
  AE: Malaise: 0 n (%)
  AE: Mouth Haemorrhage: 0 n (%)
  AE: Nausea: 0 n (%)
  AE: Neutropenia/Neutrophil Count Decreased: 6 (37.5) n (%)
  AE: Oedema: 0 n (%)
  AE: Oral Disorder: 0 n (%)
  AE: Pain In Extremity: 0 n (%)
  AE: Pancytopenia: 0 n (%)
  AE: Pneumonia: 0 n (%)
  AE: Pollakiuria: 0 n (%)
  AE: Pyrexia: 0 n (%)
  AE: Rash: 0 n (%)
  AE: Rash Erythematous: 0 n (%)
  AE: Rash Papular: 0 n (%)
  AE: Rectal Haemorrhage: 0 n (%)
  AE: Renal Failure: 0 n (%)
  AE: Skin Exfoliation: 0 n (%)
  AE: Stomatitis: 1 (6.3) n (%)
  AE: Subarachnoid Haemorrhage: 1 (6.3) n (%)
  AE: Thrombocytopenia/Platelet Count Decreased: 8 (50.0) n (%)
  AE: Total: 12 (75.0) n (%)
  AE: Tumour Lysis Syndrome: 7 (43.8) n (%)
  AE: Vomiting: 0 n (%)
  AE: Weight Decreased: 0 n (%)
  AE: White Blood Cell Count Decreased: 0 n (%)
Regimen 1B N = 6, All Grades
  AE: Abdominal Discomfort: 0 n (%)
  AE: Abdominal Pain: 0 n (%)
  AE: Abdominal Pain Upper: 0 n (%)
  AE: Acute Kidney Injury: 1 (16.7) n (%)
  AE: Amylase Increased: 0 n (%)
  AE: Anaemia: 2 (33.3) n (%)
  AE: Arthralgia: 0 n (%)
  AE: Asthenia: 1 (16.7) n (%)
  AE: Atrial Fibrillation: 0 n (%)
  AE: Atypical Pneumonia: 0 n (%)
  AE: Balanitis Candida: 0 n (%)
  AE: Blood Alkaline Phosphatase Increased: 0 n (%)
  AE: Blood Bilirubin Increased: 1 (16.7) n (%)
  AE: Blood Creatinine Increased: 0 n (%)
  AE: Blood Phosphorus Increased: 1 (16.7) n (%)
  AE: Blood Uric Acid Increased: 0 n (%)
  AE: Bone Marrow Failure: 0 n (%)
  AE: C-Reactive Protein Increased: 0 n (%)
  AE: Cardiac Failure: 0 n (%)
  AE: Cellulitis: 1 (16.7) n (%)
  AE: Chronic Graft Versus Host Disease: 0 n (%)
  AE: Conjunctival Haemorrhage: 0 n (%)
  AE: Constipation: 1 (16.7) n (%)
  AE: Cough: 0 n (%)
  AE: Cystitis Viral: 0 n (%)
  AE: Cytomegalovirus Infection: 0 n (%)
  AE: Decreased Appetite: 1 (16.7) n (%)
  AE: Diarrhoea: 0 n (%)
  AE: Dyspepsia: 0 n (%)
  AE: Dyspnoea: 0 n (%)
  AE: Epistaxis: 0 n (%)
  AE: Fatigue: 0 n (%)
  AE: Febrile Neutropenia: 2 (33.3) n (%)
  AE: Gamma-Glutamyltransferase Increased: 0 n (%)
  AE: General Physical Health Deterioration: 0 n (%)
  AE: Gingival Bleeding: 0 n (%)
  AE: Graft Versus Host Disease: 0 n (%)
  AE: Haemoglobin Decreased: 0 n (%)
  AE: Headache: 1 (16.7) n (%)
  AE: Hyperbilirubinaemia: 1 (16.7) n (%)
  AE: Hyperglycaemia: 0 n (%)
  AE: Hyperkalaemia: 1 (16.7) n (%)
  AE: Hyperphosphataemia: 1 (16.7) n (%)
  AE: Hyperuricaemia: 2 (33.3) n (%)
  AE: Hypoalbuminaemia: 0 n (%)
  AE: Hypocalcaemia: 0 n (%)
  AE: Hypokalaemia: 1 (16.7) n (%)
  AE: Hypomagnesaemia: 0 n (%)
  AE: Hyponatraemia: 1 (16.7) n (%)
  AE: Hypophosphataemia: 0 n (%)
  AE: Hypotension: 0 n (%)
  AE: Infection: 0 n (%)
  AE: Infective Glossitis: 0 n (%)
  AE: Iron Overload: 0 n (%)
  AE: Leukopenia: 0 n (%)
  AE: Lip Oedema: 0 n (%)
  AE: Lipase Increased: 0 n (%)
  AE: Macular Oedema: 1 (16.7) n (%)
  AE: Malaise: 0 n (%)
  AE: Mouth Haemorrhage: 0 n (%)
  AE: Nausea: 4 (66.7) n (%)
  AE: Neutropenia/Neutrophil Count Decreased: 1 (16.7) n (%)
  AE: Oedema: 0 n (%)
  AE: Oedema Peripheral: 1 (16.7) n (%)
  AE: Oral Disorder: 0 n (%)
  AE: Pain In Extremity: 0 n (%)
  AE: Pancytopenia: 1 (16.7) n (%)
  AE: Pneumonia: 0 n (%)
  AE: Pollakiuria: 0 n (%)
  AE: Pyrexia: 0 n (%)
  AE: Rash: 0 n (%)
  AE: Rash Erythematous: 0 n (%)
  AE: Rash Papular: 0 n (%)
  AE: Rectal Haemorrhage: 1 (16.7) n (%)
  AE: Renal Failure: 0 n (%)
  AE: Skin Exfoliation: 0 n (%)
